Source: patent US20140073634A1 (Institute For Applied Cancer Science/The University of …, priority 2012, published 2014)
pIC50: −log10 of the molar value.

What follows are compounds tested on 293T-HRE-GFP-luc cells (assay: Cell-based reporter assay for IC50 determinations (HRE-luciferase, hypoxia)). Details: 6 h, 6 hrs hypoxia (1% O2), luminescence.
Outline: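 IC50s come from four-parameter logistic fits of luminescence. Compounds in 1:3 DMSO series were added to 293T-HRE-GFP-luc cells, 30 min normoxia preceding 6 hrs at 1% O2, 37° C; HRE-luciferase signal was then measured with Steadylite Plus reagent.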

Structure (SMILES) | pIC50
N#Cc1cccc(Cn2nc(-c3nc(-c4ccc(OC(F)(F)F)cc4)no3)ccc2=O)c1 [Example 120, 3-((6-oxo-3-(3-(4-(trifluoromethoxy)phenyl)-1,2,4-oxadiazol-5-yl)pyridazin-1(6H)-yl)methyl)benzonitrile] | > 7.00
COc1cccc(Cn2cc(-c3nc(-c4ccc(OC(F)(F)F)cc4)no3)ccc2=O)c1 [Example 121, 1-(3-methoxybenzyl)-5-(3-(4-(trifluoromethoxy)phenyl)-1,2,4-oxadiazol-5-yl)pyridin-2(1H)-one] | > 7.00
N#Cc1cccc(Cn2cc(-c3nc(-c4ccc(OC(F)(F)F)cc4)no3)ccc2=O)c1 [Example 122, 3-((2-oxo-5-(3-(4-(trifluoromethoxy)phenyl)-1,2,4-oxadiazol-5-yl)pyridin-1(2H)-yl)methyl)benzonitrile] | > 7.00
CS(=O)(=O)c1cccc(Cn2cc(-c3nc(-c4ccc(OC(F)(F)F)cc4)no3)ccc2=O)c1 [Example 123, 1-(3-(methylsulfonyl)benzyl)-5-(3-(4-(trifluoromethoxy)phenyl)-1,2,4-oxadiazol-5-yl)pyridin-2(1H)-one] | > 7.00
NS(=O)(=O)c1cccc(Cn2cc(-c3nc(-c4ccc(OC(F)(F)F)cc4)no3)ccc2=O)c1 [Example 124, 3-((2-oxo-5-(3-(4-(trifluoromethoxy)phenyl)-1,2,4-oxadiazol-5-yl)pyridin-1(2H)-yl)methyl)benzenesulfonamide] | > 7.00
CN1CCN(C(=O)c2cc(Cn3nc(-c4nc(-c5ccc(OC(F)(F)F)cc5)no4)ccc3=O)ccn2)CC1 [Example 125, 2-((2-(4-methylpiperazine-1-carbonyl)pyridin-4-yl)methyl)-6-(3-(4-(trifluoromethoxy)phenyl)-1,2,4-oxadiazol-5-yl)pyridazin-3(2H)-one] | 5.00 to 6.00
COC(=O)c1cc(Cn2nc(-c3nc(-c4ccc(OC(F)(F)F)cc4)no3)ccc2=O)ccc1F [Example 126, methyl 2-fluoro-5-((6-oxo-3-(3-(4-(trifluoromethoxy)phenyl)-1,2,4-oxadiazol-5-yl)pyridazin-1(6H)-yl)methyl)benzoate] | > 7.00
O=c1c(-c2nc(-c3ccc(OC(F)(F)F)cc3)no2)cccn1Cc1ccnc(N2CCOCC2)c1 [Example 127, 1-((2-morpholinopyridin-4-yl)methyl)-3-(3-(4-(trifluoromethoxy)phenyl)-1,2,4-oxadiazol-5-yl)pyridin-2(1H)-one] | 6.00 to 7.00
Cc1ccc(-c2nc(-c3ccc(OC(F)(F)F)cc3)no2)c(=O)n1Cc1cccc(C(=O)N(C)C)c1 [Example 128, N,N-dimethyl-3-((6-methyl-2-oxo-3-(3-(4-(trifluoromethoxy)phenyl)-1,2,4-oxadiazol-5-yl)pyridin-1(2H)-yl)methyl)benzamide] | 6.00 to 7.00
O=C(c1cc(Cn2nc(-c3nc(-c4ccc(OC(F)(F)F)cc4)no3)ccc2=O)ccc1F)N1CCOCC1 [Example 129, 2-{[4-fluoro-3-(morpholine-4-carbonyl)phenyl]methyl}-6-{3-[4-(trifluoromethoxy)phenyl]-1,2,4-oxadiazol-5-yl}-2,3-dihydropyridazin-3-one] | 6.00 to 7.00
CN1CCN(C(=O)c2cc(Cn3nc(-c4nc(-c5ccc(OC(F)(F)F)cc5)no4)ccc3=O)ccc2F)CC1 [Example 130, 2-{[4-fluoro-3-(4-methylpiperazine-1-carbonyl)phenyl]methyl}-6-{3-[4-(trifluoromethoxy)phenyl]-1,2,4-oxadiazol-5-yl}-2,3-dihydropyridazin-3-one] | 6.00 to 7.00
CNC(=O)c1cccc(Cn2nc(-c3nc(-c4ccc(OC(F)(F)F)cc4)no3)ccc2=O)c1 [Example 131, N-methyl-3-[(6-oxo-3-{3-[4-(trifluoromethoxy)phenyl]-1 2 4-oxadiazol-5-yl}-1 6-dihydropyridazin-1-yl)methyl]benzamide] | > 7.00
NC(=O)c1cccc(Cn2nc(-c3nc(-c4ccc(OC(F)(F)F)cc4)no3)ccc2=O)c1 [Example 132, 3-[(6-oxo-3-{3-[4-(trifluoromethoxy)phenyl]-1,2,4-oxadiazol-5-yl}-1,6-dihydropyridazin-1-yl)methyl]benzamide] | > 7.00
CNC(=O)c1cccc(Cn2cc(-c3nc(-c4ccc(OC(F)(F)F)cc4)no3)ccc2=O)c1 [Example 133, N-methyl-3-[(2-oxo-5-{3-[4-(trifluoromethoxy)phenyl]-1,2,4-oxadiazol-5-yl}-1,2-dihydropyridin-1-yl)methyl]benzamide] | > 7.00
CN(C)C(=O)c1cccc(Cn2cc(-c3nc(-c4ccc(OC(F)(F)F)cc4)no3)ccc2=O)c1 [Example 134, N,N-dimethyl-3-[(2-oxo-5-{3-[4-(trifluoromethoxy)phenyl]-1,2,4-oxadiazol-5-yl}-1,2-dihydropyridin-1-yl)methyl]benzamide] | > 7.00
O=c1ccc(-c2nc(-c3ccc(OC(F)(F)F)cc3)no2)cn1Cc1ccc(F)c(Br)c1 [Example 135, 1-[(3-bromo-4-fluorophenyl)methyl]-5-{3-[4-(trifluoromethoxy)phenyl]-1,2,4-oxadiazol-5-yl}-1,2-dihydropyridin-2-one] | 6.00 to 7.00

Structure (SMILES) | pIC50
COc1ccc(Cn2cc(-c3nc(-c4ccc(OC(F)(F)F)cc4)no3)ccc2=O)cc1 [Example 136, 1-[(4-methoxyphenyl)methyl]-5-{3-[4-(trifluoromethoxy)phenyl]-1,2,4-oxadiazol-5-yl}-1,2-dihydropyridin-2-one] | > 7.00
CN1CCN(c2cc(Cn3cc(-c4nc(-c5ccc(OC(F)(F)F)cc5)no4)ccc3=O)ccc2F)CC1 [Example 137, 1-{[4-fluoro-3-(4-methylpiperazin-1-yl)phenyl]methyl}-5-{3-[4-(trifluoromethoxy)phenyl]-1,2,4-oxadiazol-5-yl}-1,2-dihydropyridin-2-one] | > 7.00
O=c1ccc(-c2nc(-c3ccc(OC(F)(F)F)cc3)no2)cn1Cc1ccc(F)c(N2CCOCC2)c1 [Example 138, 1-{[4-fluoro-3-(morpholin-4-yl)phenyl]methyl}-5-{3-[4-(trifluoromethoxy)phenyl]-1,2,4-oxadiazol-5-yl}-1,2-dihydropyridin-2-one] | > 7.00
O=c1ccc(-c2nc(-c3ccc(OC(F)(F)F)cc3)no2)cn1Cc1ccc(F)c(N2CCC(O)CC2)c1 [Example 139, 1-{[4-fluoro-3-(4-hydroxypiperidin-1-yl)phenyl]methyl}-5-{3-[4-(trifluoromethoxy)phenyl]-1,2,4-oxadiazol-5-yl}-1,2-dihydropyridin-2-one] | > 7.00
CNC(=O)c1cc(Cn2nc(-c3nc(-c4ccc(OC(F)(F)F)cc4)no3)ccc2=O)ccc1F [Example 140, 2-fluoro-N-methyl-5-[(6-oxo-3-{3-[4-(trifluoromethoxy)phenyl]-1,2,4-oxadiazol-5-yl}-1,6-dihydropyridazin-1-yl)methyl]benzamide] | > 7.00
O=c1ccc(-c2nc(-c3ccc(OC(F)(F)F)cc3)no2)cn1Cc1cccc(Br)c1 [Example 141, 1-[(3-bromophenyl)methyl]-5-{3-[4-(trifluoromethoxy)phenyl]-1,2,4-oxadiazol-5-yl}-1,2-dihydropyridin-2-one] | 6.00 to 7.00
O=C(Cc1cccc(Cn2nc(-c3nc(-c4ccc(OC(F)(F)F)cc4)no3)ccc2=O)c1)N1CCOCC1 [Example 142, 2-({3-[2-(morpholin-4-yl)-2-oxoethyl]phenyl}methyl)-6-{3-[4-(trifluoromethoxy)phenyl]-1,2,4-oxadiazol-5-yl}-2,3-dihydropyridazin-3-one] | 6.00 to 7.00
CN1CCN(C(=O)Cc2cccc(Cn3nc(-c4nc(-c5ccc(OC(F)(F)F)cc5)no4)ccc3=O)c2)CC1 [Example 143, 2-({3-[2-(4-methylpiperazin-1-yl)-2-oxoethyl]phenyl}methyl)-6-{3-[4-(trifluoromethoxy)phenyl]-1,2,4-oxadiazol-5-yl}-2,3-dihydropyridazin-3-one] | 6.00 to 7.00
O=c1ccc(-c2nc(-c3ccc(OC(F)(F)F)cc3)no2)cn1Cc1cccc(N2CCOCC2)c1 [Example 144, 1-{[3-(morpholin-4-yl)phenyl]methyl}-5-{3-[4-(trifluoromethoxy)phenyl]-1,2,4-oxadiazol-5-yl}-1,2-dihydropyridin-2-one] | > 7.00
CN(C)c1cccc(Cn2cc(-c3nc(-c4ccc(OC(F)(F)F)cc4)no3)ccc2=O)c1 [Example 145, 1-{[3-(dimethylamino)phenyl]methyl}-5-{3-[4-(trifluoromethoxy)phenyl]-1,2,4-oxadiazol-5-yl}-1,2-dihydropyridin-2-one] | > 7.00
O=c1ccc(-c2nc(-c3ccc(OC(F)(F)F)cc3)no2)cn1Cc1cccc([N+](=O)[O-])c1 [Example 146, 1-[(3-nitrophenyl)methyl]-5-{3-[4-(trifluoromethoxy)phenyl]-1,2,4-oxadiazol-5-yl}-1,2-dihydropyridin-2-one] | 6.00 to 7.00
O=c1ccc(-c2nc(-c3ccc(OC(F)(F)F)cc3)no2)cn1Cc1cccc(OCCO)c1 [Example 147, 1-{[3-(2-hydroxyethoxy)phenyl]methyl}-5-{3-[4-(trifluoromethoxy)phenyl]-1,2,4-oxadiazol-5-yl}-1,2-dihydropyridin-2-one] | > 7.00
CCOc1cccc(Cn2cc(-c3nc(-c4ccc(OC(F)(F)F)cc4)no3)ccc2=O)c1 [Example 148, 1-[(3-ethoxyphenyl)methyl]-5-{3-[4-(trifluoromethoxy)phenyl]-1,2,4-oxadiazol-5-yl}-1,2-dihydropyridin-2-one] | > 7.00
CN(C)C(=O)COc1cccc(Cn2cc(-c3nc(-c4ccc(OC(F)(F)F)cc4)no3)ccc2=O)c1 [Example 149, N,N-dimethyl-2-{3-[(2-oxo-5-{3-[4-(trifluoromethoxy)phenyl]-1,2,4-oxadiazol-5-yl}-1,2-dihydropyridin-1-yl)methyl]phenoxy}acetamide] | > 7.00
CC(C)(C)OC(=O)NCCOc1cccc(Cn2cc(-c3nc(-c4ccc(OC(F)(F)F)cc4)no3)ccc2=O)c1 [Example 150, tert-butyl N-(2-{3-[(2-oxo-5-{3-[4-(trifluoromethoxy)phenyl]-1,2,4-oxadiazol-5-yl}-1,2-dihydropyridin-1-yl)methyl]phenoxy}ethyl)carbamate] | > 7.00
